In one test the test system is adult rats. To be noted: cited from earlier work.
Test [1] deals with acquired pendular nystagmus. To be noted: physical symptom of multiple sclerosis; cited from earlier work.
Test [2] relates to thermal hyperalgesia and mechanical allodynia. The following applies: relatively high doses; without obvious effects on motor reflexes; cited from earlier work.
Another test relates to NMDA receptor. The following applies: noncompetitive antagonist; cited from earlier work.
Test [3] concerns spastic hind limbs of EAE mice. In words: Spasticity (resistance to hindlimb flexion against a strain gauge) in the EAE model in mice. The format is in vivo, ABH mice. The arrangement: Resistance to flexion, Diff of Means: unit not given here. The text has this:
Induction of EAE. Induction of EAE in animal models is well known in the art. (Raine, Chapter 16, Handbook of Clinical Neurology, vol. 3(47): Demyelinating Diseases, Koetsier, ed., (Elsevier Science Publishers 1985). In the present protocol, 6-8 week ABH mice are immunized with mouse spinal cord homogenate in Freund's complete adjuvant on day 0 & 7. (Baker et al. 1990. J. Neuroimmunol 28:261 O'Neill et al 1992. J. Neuroimmunol. 38:53). Animals will develop relapsing remitting episodes of paralysis at approximately 3-4 week intervals. These will be monitored daily from day 11 onwards to ensure severity levels of paralysis and maintained with humane limits according to the Home Office, Animals (Scientific Procedures) Act […]. Spasticity (stiff hind limbs) after 2-3 relapse episodes (approximately 80-120 days post-induction) will be allowed to develop. Animals with visually spastic limbs will be selected for assessment of the TEST compound.
Resistance to flexion against a strain gauge will be the primary assessment (Baker et al. 2000. Nature), secondary outcome measures will be the presence or absence of spastic tails.
Spasticity. The “stiffness” of spastic limbs is measured using a purpose built strain gauge, and assessed by the resistance force against hindlimb flexion. The limb is extended manually twice prior to measurement of each limb. Limbs showing severe crossing or flexion will not be analyzed. The signal is amplified and digitized using DAS16 card (Amplicon, Brighton UK.) and acquired using Dacquire V10 software and analyzed using Spike 2 software (Baker et al 2000). Left and right hindlimbs are analyzed alternately and typically 5-8 readings per limb were measured at each time point. The mean values will be calculated and converted to forces in Newtons. Data will be analyzed using one-way repeated measures analysis of variance (ANOVA) incorporating Student-Newman-Keuls posthoc test. Differences to baseline will also be compared using Paired t tests.
Administration of compound. The TEST compounds are dissolved in vehicle (to be supplied by the SPONSOR-preferably this will be a saline solution) using doses (to be supplied by the SPONSOR). These will be delivered by the intravenous, intraperitoneal or oral route (to be supplied by the sponsor). Resistance to flexion will be assessed at 10 minutes 30 minutes and 60 minutes following intravenous, intraperitoneal injection, 30, 60 and 90 minutes after oral administration. (Escalating doses (up to three) may be used in the same cohort of animals following wash-out to allow for direct comparison of the dose response).

Turning to `CC12CC3CC(C)(C1)CC(N)(C3)C2` [Memantine, 1-amino-3,5-dimethyl adamantane], in the test with adult rats, the “Formation of hippocampal long-term potentiation” value is on record as “enhance the formation of hippocampal long-term potentiation” and the Spatial memory abilities entry is “improve spatial memory abilities”. Besides, the “Treatment of acquired pendular nystagmus” value in test [1] is reported as “effective”. For the same molecule, the “Thermal hyperalgesia and mechanical allodynia” value in test [2] was “selectively block thermal hyperalgesia and mechanical allodynia”. Further, in the test on NMDA receptor, the “Affinity for the NMDA receptor” value was “moderate affinity”.

In the case of `CC1(C)CC(C)(C)CC(C)(N)C1` [Neramexane, 1-amino-1,3,3,5,5-pentamethylcyclohexane], the “Resistance to flexion, Diff of Means” value came to 0.171 in test [3] (3.1 mg/kg, 0 min vs. 10 min, P<0.001); 0.142 in test [3] (3.1 mg/kg, 0 min vs. 30 min, P<0.001); 0.218 in test [3] (3.1 mg/kg, 0 min vs. 60 min, P<0.001); 0.0474 in test [3] (3.1 mg/kg, 10 min vs. 60 min, P 0.228, Do Not Test); 0.0293 in test [3] (3.1 mg/kg, 30 min vs. 10 min, P 0.453, Do Not Test); 0.0767 in test [3] (3.1 mg/kg, 30 min vs. 60 min, P 0.130, not significant). Besides, the “Resistance to flexion, Diff of Means” value in test [3] (6.2 mg/kg, 0 min vs. 10 min, P 0.999, not significant) is 0.0000691; in test [3] (6.2 mg/kg, 0 min vs. 30 min, P 0.013), 0.117; in test [3] (6.2 mg/kg, 0 min vs. 60 min, P<0.001), 0.172; in test [3] (6.2 mg/kg, 10 min vs. 30 min, P 0.005) it was 0.117; in test [3] (6.2 mg/kg, 10 min vs. 60 min, P<0.001), 0.172; in test [3] (6.2 mg/kg, 30 min vs. 60 min, P 0.162, not significant), 0.0549. Besides, the “Resistance to flexion, Diff of Means” value in test [3] (12.3 mg/kg, 0 min vs. 10 min, P<0.001) came to 0.114; in test [3] (12.3 mg/kg, 0 min vs. 30 min, P<0.001), 0.103; in test [3] (12.3 mg/kg, 0 min vs. 60 min, P<0.001), 0.189; in test [3] (12.3 mg/kg, 10 min vs. 60 min, P 0.007) it was 0.0757; in test [3] (12.3 mg/kg, 30 min vs. 10 min, P 0.693, not significant), 0.0106; in test [3] (12.3 mg/kg, 30 min vs. 60 min, P 0.007) it was 0.0863. The “Resistance to flexion, Mean” value worked out at 0.422 N in test [3] (3.1 mg/kg, 10 min post-injection, baseline 0 min 0.593, N=13); 0.451 N in test [3] (3.1 mg/kg, 30 min post-injection, baseline 0 min 0.593, N=13); 0.374 N in test [3] (3.1 mg/kg, 60 min post-injection, baseline 0 min 0.593, N=13); 0.567 N in test [3] (6.2 mg/kg, 10 min post-injection, baseline 0 min 0.567, N=11); 0.450 N in test [3] (6.2 mg/kg, 30 min post-injection, baseline 0 min 0.567, N=11); 0.395 N in test [3] (6.2 mg/kg, 60 min post-injection, baseline 0 min 0.567, N=11). The “Resistance to flexion, Mean” value in test [3] (12.3 mg/kg, 10 min post-injection, baseline 0 min 0.453, N=14) is on record as 0.339 N; in test [3] (12.3 mg/kg, 30 min post-injection, baseline 0 min 0.453, N=14), 0.350 N; in test [3] (12.3 mg/kg, 60 min post-injection, baseline 0 min 0.453, N=14), 0.263 N. Besides, the “Level of hind limb spasticity” value in test [3] (all 3 doses (3.1, 6.2, 12.3 mg/kg), affected EAE mice) was “reduced the level of hind limb spasticity”. Moreover, the “Thermal hyperalgesia and mechanical allodynia” value in test [2] was “selectively block thermal hyperalgesia and mechanical allodynia”. In the test on NMDA receptor, the “Affinity for the NMDA receptor” value was “moderate affinity”.

These data come from patent US20060205822A1, “1-Aminocyclohexane derivatives for the treatment of multiple sclerosis, emotional lability and pseudobulbar affect” (Forest Laboratories, Inc., priority 2004, published 2006).
